Data reported in patent US20080093247A1, “PACKAGING MATERIALS FOR FORMULATIONS CONTAINING 2-PYRROLIDONE DERIVATIVES” (Alcon Manufacturing Ltd., priority 2006, published 2008).
“And” between values parts separate entries of the source, which are not always exact repeats. Identical values can stand only once. One block for each compound: values may come before it.

Assays:
[1] = Retention of N-dodecyl-2-pyrrolidone (DDP) in formulations stored in various packaging materials, HPLC; format: physicochemical
Method: A material substantially lacking absorptive and adsorptive properties for a 5-(R1)-N-(R2)-2-pyrrolidone. A material substantially lacking absorptive and adsorptive properties for a 5-(R1)-N-(R2)-2-pyrrolidone is determined by packaging a 5-(R1)-N-(R2)-2-pyrrolidone-containing formulation in a bottle made from a test material, removing samples from the formulation at different storage times, and testing for the presence of the 2-pyrrolidone derivative. For example, presence of N-dodecyl-2-pyrrolidone (DDP) within a test sample is determined quantitatively using HPLC analysis as described in the examples provided infra.
The serotonergic formulation set forth in Table 1 was compounded in a glass bottle using techniques known to those skilled in the art. The formulation was tested for starting DDP concentration and then a volume was filled into different types of packaging materials as set forth in Table 2. The filled packages were then stored at the conditions indicated in Table 2, either room temperature or constant temperature ovens at 40° C. and 60° C. The thermal exposure testing was used to simulate the ability of container material to retain and deliver DDP in solution over a period of time or after prolonged increased thermal exposure. The tests were performed on duplicate containers to verify DDP concentration remaining in solution.
Concentration of DDP in each formulation was determined by chromatographic separation. The tests were performed on a WATERS ALLIANCE HPLC system with a CADENZA C18 column using a mobile phase consisting of 85% acetonitrile and 15% 1-octanesulfonic acid/water at room temperature. Absorbance was monitored at 220 nm, the known absorption wavelength of DDP. Linear range of detection for DDP was from 1.0 to 100.0 ppm. Retention time of DDP using this system is 8.3 minutes.
In further reference to Table 2, “Glass Vial” is a 1.5 mL clear borosilicate glass vial sealed with a TEFLON® lined septa and aluminum crimp seal (AGILENT HPLC vials part number 5182-0543). “White PETE” is a 60 mL cylindrical bottle made from polyethylene terephthalate (PETE) resin containing a white colorant, titanium dioxide (ALCON part number X04715). “Natural sPP” is a 4 mL oval bottle made from syndiotactic polypropylene (sPP) resin without colorant, i.e., natural (ALCON part number 281277). “Natural TEFLON®” is a 30 mL cylindrical bottle made from fluorinated ethylene propylene (TEFLON® FEP) polymer without colorant by NALGENE® (VWR part number 16071-008).
The serotonergic formulation set forth in Table 3 was compounded in the same manner as the Table 1 formulation. The test, the method of testing, and the packaging were as for the Table 1 formulation.
The formulation set forth in Table 5 was compounded in the same manner as the Table 1 formulation. The test, the method of testing, and the packaging were as for the Table 1 formulation.
The formulation set forth in Table 7 was compounded in the same manner as the Table 1 formulation. The test, the method of testing, and the packaging were as for the Table 1 formulation, except as indicated. “White LDPE” is an 8 mL cylindrical bottle made from low-density polyethylene (LDPE) with white colorant and is ALCON part number 277027. “Natural Polystyrene” is a 150 mL cylindrical bottle made of polystyrene polymer without colorant and is CORNING filter flask product 431153.

[2] = cited from earlier work

DDP concentration in formulation ([1]; Table 1 formulation, Glass Vial 1.5 mL Fill, 1 day @ 40° C.): 9.5 ppm and 9.6 ppm | DDP concentration in formulation ([1]; Table 1 formulation, Glass Vial 1.5 mL Fill, 1 day @ 60° C.): 10 ppm and 9.6 ppm | DDP concentration in formulation ([1]; Table 1 formulation, Glass Vial 1.5 mL Fill, 1 day @ RT): 9.2 ppm and 9.3 ppm | DDP concentration in formulation ([1]; Table 1 formulation, Glass Vial 1.5 mL Fill, 2 days @ 40° C.): 9.3, 9.3 ppm | DDP concentration in formulation ([1]; Table 1 formulation, Glass Vial 1.5 mL Fill, 2 days @ 60° C.): 9.4 ppm and 9.1 ppm | DDP concentration in formulation ([1]; Table 1 formulation, Glass Vial 1.5 mL Fill, 5 days @ 40° C.): 8.8 ppm and 9.1 ppm | DDP concentration in formulation ([1]; Table 1 formulation, Glass Vial 1.5 mL Fill, 5 days @ 60° C.): 8.9 ppm and 8.6 ppm | DDP concentration in formulation ([1]; Table 1 formulation, Glass Vial 1.5 mL Fill, 6 days @ RT): 9.0, 9.0 ppm | DDP concentration in formulation ([1]; Table 1 formulation, Natural TEFLON 10 mL Fill, 2 days @ 60° C.): 8.4 ppm | DDP concentration in formulation ([1]; Table 1 formulation, Natural TEFLON 10 mL Fill, 5 days @ 60° C.): 7.8 ppm | DDP concentration in formulation ([1]; Table 1 formulation, Natural sPP 4 mL Fill, 1 day @ 40° C.): 3.3 ppm and 3.4 ppm | DDP concentration in formulation ([1]; Table 1 formulation, Natural sPP 4 mL Fill, 1 day @ 60° C.): 1.3, 1.3 ppm | DDP concentration in formulation ([1]; Table 1 formulation, Natural sPP 4 mL Fill, 1 day @ RT): 6.1 ppm and 6.6 ppm | DDP concentration in formulation ([1]; Table 1 formulation, Natural sPP 4 mL Fill, 2 days @ 40° C.): 1.6 ppm and 1.7 ppm | DDP concentration in formulation ([1]; Table 1 formulation, Natural sPP 4 mL Fill, 2 days @ 60° C.): 1.2 ppm and 1.3 ppm | DDP concentration in formulation ([1]; Table 1 formulation, Natural sPP 4 mL Fill, 6 days @ RT): 4.0 ppm and 3.9 ppm | DDP concentration in formulation ([1]; Table 1 formulation, Start, before filling into packaging): 11,11 ppm and 11, 11 ppm | DDP concentration in formulation ([1]; Table 1 formulation, White PETE 10 mL Fill, 1 day @ 40° C.): 9.6 ppm and 9.3 ppm | DDP concentration in formulation ([1]; Table 1 formulation, White PETE 10 mL Fill, 1 day @ 60° C.): 8.1 ppm and 8.3 ppm | DDP concentration in formulation ([1]; Table 1 formulation, White PETE 10 mL Fill, 1 day @ RT): 9.8 ppm and 10 ppm | DDP concentration in formulation ([1]; Table 1 formulation, White PETE 10 mL Fill, 2 days @ 40° C.): 8.9 ppm and 9.4 ppm | DDP concentration in formulation ([1]; Table 1 formulation, White PETE 10 mL Fill, 2 days @ 60° C.): 7.4 ppm and 7.5 ppm | DDP concentration in formulation ([1]; Table 1 formulation, White PETE 10 mL Fill, 5 days @ 40° C.): 8.8 ppm and 9.3 ppm | DDP concentration in formulation ([1]; Table 1 formulation, White PETE 10 mL Fill, 5 days @ 60° C.): 6.1 ppm and 6.4 ppm | DDP concentration in formulation ([1]; Table 1 formulation, White PETE 10 mL Fill, 6 days @ RT): 9.1 ppm and 9.0 ppm | DDP concentration after thermal exposure (in words) ([1]; Table 1 formulation, sPP container, Tests 1, 2, and 3): drops significantly | DDP concentration in formulation ([1]; Table 3 formulation, Glass Vial 1.5 mL Fill, 1 day @ 40° C.): 20, 20 ppm | DDP concentration in formulation ([1]; Table 3 formulation, Glass Vial 1.5 mL Fill, 1 day @ 60° C.): 20, 20 ppm | DDP concentration in formulation ([1]; Table 3 formulation, Glass Vial 1.5 mL Fill, 1 day @ RT): 20, 20 ppm | DDP concentration in formulation ([1]; Table 3 formulation, Glass Vial 1.5 mL Fill, 2 days @ 40° C.): 19 ppm and 21 ppm | DDP concentration in formulation ([1]; Table 3 formulation, Glass Vial 1.5 mL Fill, 2 days @ 60° C.): 20 ppm and 19 ppm | DDP concentration in formulation ([1]; Table 3 formulation, Glass Vial 1.5 mL Fill, 5 days @ 40° C.): 20, 20 ppm | DDP concentration in formulation ([1]; Table 3 formulation, Glass Vial 1.5 mL Fill, 5 days @ 60° C.): 19, 19 ppm | DDP concentration in formulation ([1]; Table 3 formulation, Glass Vial 1.5 mL Fill, 6 days @ RT): 20, 20 ppm | DDP concentration in formulation ([1]; Table 3 formulation, Natural TEFLON 10 mL Fill, 2 days @ 60° C.): 19 ppm | DDP concentration in formulation ([1]; Table 3 formulation, Natural TEFLON 10 mL Fill, 5 days @ 60° C.): 19 ppm | DDP concentration in formulation ([1]; Table 3 formulation, Natural sPP 4 mL Fill, 1 day @ 40° C.): 13, 13 ppm | DDP concentration in formulation ([1]; Table 3 formulation, Natural sPP 4 mL Fill, 1 day @ 60° C.): 7.0, 7.0 ppm | DDP concentration in formulation ([1]; Table 3 formulation, Natural sPP 4 mL Fill, 1 day @ RT): 18, 18 ppm | DDP concentration in formulation ([1]; Table 3 formulation, Natural sPP 4 mL Fill, 2 days @ 40° C.): 10, 10 ppm | DDP concentration in formulation ([1]; Table 3 formulation, Natural sPP 4 mL Fill, 2 days @ 60° C.): 3.4 ppm and 3.2 ppm | DDP concentration in formulation ([1]; Table 3 formulation, Natural sPP 4 mL Fill, 5 days @ 40° C.): 6.1 ppm and 6.2 ppm | DDP concentration in formulation ([1]; Table 3 formulation, Natural sPP 4 mL Fill, 6 days @ RT): 15, 15 ppm | DDP concentration in formulation ([1]; Table 3 formulation, Start, before filling into packaging): 20, 20 ppm | DDP concentration in formulation ([1]; Table 3 formulation, White PETE 10 mL Fill, 1 day @ 40° C.): 20, 20 ppm | DDP concentration in formulation ([1]; Table 3 formulation, White PETE 10 mL Fill, 1 day @ 60° C.): 19 ppm and 20 ppm | DDP concentration in formulation ([1]; Table 3 formulation, White PETE 10 mL Fill, 1 day @ RT): 21 ppm and 20 ppm | DDP concentration in formulation ([1]; Table 3 formulation, White PETE 10 mL Fill, 2 days @ 40° C.): 20 ppm and 19 ppm | DDP concentration in formulation ([1]; Table 3 formulation, White PETE 10 mL Fill, 2 days @ 60° C.): 18 ppm and 19 ppm | DDP concentration in formulation ([1]; Table 3 formulation, White PETE 10 mL Fill, 5 days @ 40° C.): 20, 20 ppm | DDP concentration in formulation ([1]; Table 3 formulation, White PETE 10 mL Fill, 5 days @ 60° C.): 17 ppm and 18 ppm | DDP concentration in formulation ([1]; Table 3 formulation, White PETE 10 mL Fill, 6 days @ RT): 19 ppm and 20 ppm | available DDP in the contained solution (in words) ([1]; Table 3 formulation, sPP packaging relative to Glass Vial, PETE, and TEFLON, Tests 4, 5, and 6): significant reduction | DDP concentration in formulation ([1]; Table 5 formulation, Glass Vial 1.5 mL Fill, 1 day @ 40° C.): 9.0 ppm and 8.9 ppm | DDP concentration in formulation ([1]; Table 5 formulation, Glass Vial 1.5 mL Fill, 1 day @ RT): 8.7 ppm and 8.6 ppm | DDP concentration in formulation ([1]; Table 5 formulation, Glass Vial 1.5 mL Fill, 2 days @ 40° C.): 8.6 ppm and 8.2 ppm | DDP concentration in formulation ([1]; Table 5 formulation, Glass Vial 1.5 mL Fill, 6 days @ RT): 8.4 ppm and 8.2 ppm | DDP concentration in formulation ([1]; Table 5 formulation, Natural sPP 4 mL Fill, 1 day @ 40° C.): 0.3, 0.3 ppm | DDP concentration in formulation ([1]; Table 5 formulation, Natural sPP 4 mL Fill, 1 day @ RT): 1.1, 1.1 ppm | DDP concentration in formulation ([1]; Table 5 formulation, Start, before filling into packaging): 8.0, 8.0 ppm | DDP concentration in formulation ([1]; Table 5 formulation, White PETE 10 mL Fill, 1 day @ 40° C.): 5.5 ppm and 5.0 ppm | DDP concentration in formulation ([1]; Table 5 formulation, White PETE 10 mL Fill, 1 day @ RT): 6.3 ppm and 6.4 ppm | DDP concentration in formulation ([1]; Table 5 formulation, White PETE 10 mL Fill, 2 days @ 40° C.): 4.6 ppm and 4.5 ppm | DDP concentration in formulation ([1]; Table 5 formulation, White PETE 10 mL Fill, 6 days @ RT): 6.5 ppm and 6.4 ppm | available DDP in the contained solution (in words) ([1]; Table 5 formulation, sPP packaging relative to Glass Vial and PETE, Tests 7, 8, and 9): significant reduction | loss of DDP from the formulation (in words) ([1]; Table 7 formulation, White LDPE container, Tests 10, 11, and 12): even more severe than the sPP container
SMILES: CCCCCCCCCCCCN1CCCC1=O [DDP, N-dodecyl-2-pyrrolidone]
retaining DDP in the formulation (in words) ([1]; Table 7 formulation, Natural Polystyrene container, Tests 10, 11, and 12): essentially equivalent to the PETE container | loss of DDP from the formulation (in words) ([1]; Table 7 formulation, sPP container, Tests 10, 11, and 12): much greater than that of the Glass Vial or PETE containers | solubility in water [2]: up to 0.002%

SMILES: CCCCCCCCN1CCCC1=O [N-octyl-2-pyrrolidone]
solubility in water [2]: up to 0.124%
